Experimental data from paper PMC8795197, “Safety and activity of WX-0593 (Iruplinalkib) in patients with ALK- or ROS1-rearranged advanced non-small cell lung cancer: a phase 1 dose-escalation and dose-expansion trial” (Signal Transduction and Targeted Therapy, 2022).
pIC50: −log10 of the molar value. Entries after “also recorded” stand apart in the source; their conditions may differ.

What was measured:
[1] = Reproductive toxicity study; conditions: rat, in vivo
in vivo = conditions: cynomolgus monkey, po; for AUC(0-t) / Cmax: 50 mg/kg
Caco-2 cell monolayer = Caco-2 cell monolayer permeability assay; type: in vitro ADME
Source text: The objective of this study was to determine the bidirectional permeability and efflux ratio (ER) of the test article WX-0593 using the Caco-2 cell monolayer model.

[2] = Repeated-dose toxicity study, 28 days oral gavage
Method: Repeated administration for 28 days was carried out. 3, 10, and 30 mg/kg were administered to rats. 1, 3, and 10 mg/kg were administered to cynomolgus monkeys.

[3] = Excretion and mass balance after [14C]WX-0593, bile-duct cannulation (BDC); type: in vivo; conditions: 0-72 hours, BDC rats
EGFR L858R/T790M = EGFR L858R/T790M (Homo sapiens, UniProt P00533, L858R/T790M); experiment: In vitro enzyme inhibition study; type: biochemical; conditions: difference in inhibitory activity within 3 times
EGFR L858R/T790M, sequence (P00533 25-1210 T790M/L858R): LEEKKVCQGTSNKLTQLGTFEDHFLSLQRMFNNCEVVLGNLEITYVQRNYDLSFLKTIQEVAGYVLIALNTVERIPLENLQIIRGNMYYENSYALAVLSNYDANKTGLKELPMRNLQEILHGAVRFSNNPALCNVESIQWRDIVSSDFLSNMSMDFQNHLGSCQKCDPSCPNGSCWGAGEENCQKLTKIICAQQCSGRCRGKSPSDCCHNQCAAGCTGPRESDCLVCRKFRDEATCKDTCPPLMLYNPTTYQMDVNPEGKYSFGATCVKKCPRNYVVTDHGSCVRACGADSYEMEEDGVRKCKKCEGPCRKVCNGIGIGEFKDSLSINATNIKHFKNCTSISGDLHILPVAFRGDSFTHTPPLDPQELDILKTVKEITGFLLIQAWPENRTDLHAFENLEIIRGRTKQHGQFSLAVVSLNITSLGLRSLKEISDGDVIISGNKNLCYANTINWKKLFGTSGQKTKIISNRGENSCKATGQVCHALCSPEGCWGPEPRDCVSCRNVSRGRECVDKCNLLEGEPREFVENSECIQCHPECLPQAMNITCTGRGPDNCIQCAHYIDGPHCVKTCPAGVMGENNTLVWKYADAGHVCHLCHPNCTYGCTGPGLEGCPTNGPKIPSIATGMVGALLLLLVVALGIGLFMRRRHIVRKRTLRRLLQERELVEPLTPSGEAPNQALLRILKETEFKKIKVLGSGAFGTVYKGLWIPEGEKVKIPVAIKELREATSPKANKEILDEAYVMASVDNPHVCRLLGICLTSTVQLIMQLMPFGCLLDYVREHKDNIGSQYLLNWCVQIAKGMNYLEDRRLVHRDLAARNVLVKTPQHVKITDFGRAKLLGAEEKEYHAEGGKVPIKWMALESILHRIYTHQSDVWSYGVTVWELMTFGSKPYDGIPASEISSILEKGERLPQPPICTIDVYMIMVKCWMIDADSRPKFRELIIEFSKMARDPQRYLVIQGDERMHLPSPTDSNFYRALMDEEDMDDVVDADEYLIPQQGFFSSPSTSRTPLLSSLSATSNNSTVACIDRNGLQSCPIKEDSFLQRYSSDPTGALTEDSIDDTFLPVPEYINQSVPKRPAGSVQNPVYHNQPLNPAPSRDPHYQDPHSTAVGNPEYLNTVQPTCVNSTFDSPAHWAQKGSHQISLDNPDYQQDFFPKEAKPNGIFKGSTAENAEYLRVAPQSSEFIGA
Source text: (§1) The inhibitory activities were low for other serine, threonine, and tyrosine […], except for the EGFR wild type, within the tested concentration range.

ALK wild type = ALK wild type (Homo sapiens, UniProt Q9UM73); experiment: In vitro enzyme inhibition study; type: biochemical; conditions: difference in inhibitory activity within 3 times
ALK wild type, sequence (Q9UM73 19-1620): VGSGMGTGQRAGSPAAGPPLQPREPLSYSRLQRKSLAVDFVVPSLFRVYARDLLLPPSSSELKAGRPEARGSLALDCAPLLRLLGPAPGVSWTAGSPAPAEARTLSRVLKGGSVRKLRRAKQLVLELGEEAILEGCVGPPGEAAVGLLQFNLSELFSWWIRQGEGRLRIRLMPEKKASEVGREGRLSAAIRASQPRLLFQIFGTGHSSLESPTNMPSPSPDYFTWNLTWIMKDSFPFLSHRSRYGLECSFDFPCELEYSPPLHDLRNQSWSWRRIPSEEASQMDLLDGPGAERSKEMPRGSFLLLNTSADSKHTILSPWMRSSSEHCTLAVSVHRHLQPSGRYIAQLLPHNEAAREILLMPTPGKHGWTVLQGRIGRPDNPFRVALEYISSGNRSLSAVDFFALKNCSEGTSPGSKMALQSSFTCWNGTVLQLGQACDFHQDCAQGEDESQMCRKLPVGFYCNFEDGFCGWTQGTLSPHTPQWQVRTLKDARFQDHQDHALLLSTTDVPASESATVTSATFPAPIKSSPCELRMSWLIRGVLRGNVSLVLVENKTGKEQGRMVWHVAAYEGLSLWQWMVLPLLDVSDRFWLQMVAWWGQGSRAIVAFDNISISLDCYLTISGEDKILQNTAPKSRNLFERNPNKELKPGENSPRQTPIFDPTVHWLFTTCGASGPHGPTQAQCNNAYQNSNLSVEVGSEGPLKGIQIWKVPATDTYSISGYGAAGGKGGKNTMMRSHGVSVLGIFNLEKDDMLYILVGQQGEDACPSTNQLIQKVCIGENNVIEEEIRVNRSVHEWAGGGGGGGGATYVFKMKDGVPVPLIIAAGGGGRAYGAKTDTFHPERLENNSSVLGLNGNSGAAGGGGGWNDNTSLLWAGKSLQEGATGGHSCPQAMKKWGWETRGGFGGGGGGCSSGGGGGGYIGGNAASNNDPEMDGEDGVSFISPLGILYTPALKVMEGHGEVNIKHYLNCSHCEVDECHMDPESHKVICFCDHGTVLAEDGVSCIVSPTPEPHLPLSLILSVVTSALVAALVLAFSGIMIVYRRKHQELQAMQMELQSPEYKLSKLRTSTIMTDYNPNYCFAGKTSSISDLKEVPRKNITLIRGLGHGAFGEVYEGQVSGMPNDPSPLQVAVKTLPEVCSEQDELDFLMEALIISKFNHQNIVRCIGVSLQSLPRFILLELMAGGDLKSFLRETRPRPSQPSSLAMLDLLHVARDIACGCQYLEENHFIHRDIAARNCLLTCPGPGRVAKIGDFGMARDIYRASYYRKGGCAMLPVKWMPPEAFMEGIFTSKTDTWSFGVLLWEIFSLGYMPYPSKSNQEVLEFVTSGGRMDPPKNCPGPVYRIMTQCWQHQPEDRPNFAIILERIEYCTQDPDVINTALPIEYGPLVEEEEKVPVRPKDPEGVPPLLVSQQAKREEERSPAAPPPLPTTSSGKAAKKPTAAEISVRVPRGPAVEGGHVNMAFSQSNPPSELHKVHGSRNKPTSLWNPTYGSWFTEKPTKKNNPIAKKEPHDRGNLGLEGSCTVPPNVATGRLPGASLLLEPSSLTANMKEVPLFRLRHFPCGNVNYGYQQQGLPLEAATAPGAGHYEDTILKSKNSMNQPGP
Source text: as §1

ALK mutant L1196M = ALK mutant L1196M (Homo sapiens, UniProt Q9UM73, L1196M); experiment: In vitro enzyme inhibition study; type: biochemical; conditions: difference in inhibitory activity within 3 times
ALK mutant L1196M, sequence (Q9UM73 19-1620 L1196M): as the sequence (Q9UM73 19-1620) above, with L1178M counted along it
Source text: as §1

ALK mutant C1156Y = ALK mutant C1156Y (Homo sapiens, UniProt Q9UM73, C1156Y); experiment: In vitro enzyme inhibition study; type: biochemical; conditions: difference in inhibitory activity within 3 times
ALK mutant C1156Y, sequence (Q9UM73 19-1620 C1156Y): as the sequence (Q9UM73 19-1620) above, with C1138Y counted along it
Source text: as §1

Ba/F3 (EML4-ALK-L1196M) = experiment: Cell proliferation inhibition assay; type: cell-based
[4] = General pharmacology: CNS and respiratory system; type: in vivo, rats
Method: […]. Therefore, WX-0593 has a low risk of cardiotoxicity. There were no effects on the CNS and respiratory system in rats at doses of 3, 10, and 30 mg/kg. However, WX-0593 10 and 30 mg/kg may result in benign respiratory rate and decreases in minute ventilation in female rats. There were no effects on the cardiovascular system, blood pressure, ECG parameters or waveforms in monkeys at doses of 5, 10, and 25 mg/kg; 10 and 25 mg/kg may result in mild decreases in heart rate (within the normal range) and PR prolongation and QTc shortening associated with bradycardia within the normal range (no statistical difference when compared to the control arm). No cardiovascular system adverse reactions related to the test product were found. The human equivalent dose (using 60 kg) is 3636 mg/person in CNS, 3636 mg/person in male respiratory system and 363.6 mg/person in female respiratory system, and 607 mg/person in cardiovascular system.

Ba/F3 CD74-ROS1-L1951R = experiment: Growth of transfected Ba/F3 cells (CellTiter-Glo, 3 days); type: cell-based; conditions: Mus musculus, BaF3
Method: (§2) Harvest cells during the logarithmic growth period and count cells using blood counting chamber. Adjust cell concentration with culture medium. Add 90µl cell suspensions to two 96-well plates to the final cell density as described before. Incubate the plate overnight in humidified incubator at 37℃ with 5% CO2. Dispense 10µl drug solution (10×) to each well (triplicate for each concentration), and the DMSO final concentration in culture medium is 0.1% [v/v]. Culture the plates for 3 days.On Day 3, Read luminescent using Multi Label Reader. The software of GraphPad Prism was used to calculate IC50. The graphical curves were fitted using a nonlinear regression model with a sigmoidal dose response.

Ba/F3 SLC34A2-ROS1 = experiment: as above; type: cell-based; conditions: Mus musculus, BaF3
Method: as §2

Ba/F3 CD74-ROS1-D2033N = experiment: as above; type: cell-based; conditions: Mus musculus, BaF3
Method: as §2

[5] = test system: Ba/F3 SLC34A2-ROS1-L2026M; experiment: as above; type: cell-based; conditions: Mus musculus, BaF3
Method: as §2

Ba/F3 = experiment: Cell proliferation inhibition assay; type: cell-based

In the case of `COc1cc(N2CCC3(CCN(C)CC3)CC2)ccc1Nc1ncc(Cl)c(Nc2ccccc2P(C)(C)=O)n1` [WX-0593], the “NOAEL as multiple of the effective dose in nude mice” value [1] was 8 times, the NOAEL ([1]; read-out: NOAEL of fertility and early embryo developmental toxicity) was 10 mg/kg and the MTD (in vivo) was 50 mg/kg. For the same compound, the AUC(0-t) (in vivo; female) was 50600 ng·h/mL, the Cmax (in vivo; female) was 4010 ng/mL and the AUC(0-t) (in vivo; male) was 35000 ng·h/mL. For the same compound, the Cmax (in vivo; male) was 2180 ng/mL, the efflux transporter substrate (Caco-2 cell monolayer) was “very likely to be a substrate of efflux transporters” and the permeability (Caco-2 cell monolayer; 50 µM) was “high permeability”. For the same compound, the permeability (Caco-2 cell monolayer; 0.5 and 5 µM) was “low permeability”, the “human equivalent dose (HED)” value ([2]; 1/5 of NOAEL, 60 kg/person) was 12 mg/person and the human equivalent dose ([2]; 1/6 of HNSTD, 60 kg/person) was 32 mg/person. The “highest non-severely toxic dose (HNSTD)” value ([2]; 28 days oral gavage) was “greater than 10 mg/kg/day”, the “HNSTD as multiple of the effective dose in nude mice” value ([2]; cynomolgus monkey, in vivo) was 16 times and the “NOAEL as multiple of the effective dose in nude mice” value ([2]; cynomolgus monkey, in vivo) was 4.8 times. The “dose excreted in bile” value [3] was 30.56%, the “dose excreted in feces” value [3] was 32.04% and the “dose excreted in urine” value [3] was 30.73%. The “dose in cage rinses and washes” value [3] was 1.43%, the “mean radioactivity recovery rate” value [3] was 94.75% and the “inhibitory activity compared with brigatinib” value (EGFR L858R/T790M) was “comparable with the activity of brigatinib; also recorded: comparable to brigatinib”. The “inhibitory activity compared with brigatinib” value (ALK wild type) was “comparable with the activity of brigatinib; also recorded: comparable to brigatinib”, the “inhibitory activity compared with brigatinib” value (ALK mutant L1196M) was “comparable with the activity of brigatinib; also recorded: comparable to brigatinib” and the “inhibitory activity compared with brigatinib” value (ALK mutant C1156Y) was “comparable with the activity of brigatinib; also recorded: comparable to brigatinib”. For the same compound, the growth inhibition (Ba/F3 (EML4-ALK-L1196M)) was “significantly inhibits the growth”, the “effects on the CNS and respiratory system” value ([4]; 3, 10 and 30 mg/kg) was “no effects” and the “human equivalent dose, CNS” value ([4]; using 60 kg) was 3636 mg/person. For the same compound, the “human equivalent dose, female respiratory system” value ([4]; using 60 kg) was 363.6 mg/person, the “human equivalent dose, male respiratory system” value ([4]; using 60 kg) was 3636 mg/person and the pIC50 (Ba/F3 CD74-ROS1-L1951R) was 6.20. It also gave a pIC50 (Ba/F3 SLC34A2-ROS1) of 7.96, a pIC50 (Ba/F3 CD74-ROS1-D2033N) of 7.47 and a pIC50 [5] of 7.92. The “IC50 relative to ALK-related cells” value (Ba/F3) was “significantly higher”.
